In patent US11439606B2 (priority 2018, dated 2022):

Assays:
Format in all cases: in vivo, rat
type I diabetic rats [1] = test: Renal function tests (urea, serum creatinine) in type I diabetic rats treated with DMF; settings: DMF 8 mg/kg daily ip
Method: (§1) Controlled test results were performed by, and under the direction of, the inventors, involving four type I diabetic rats, two of which were female and two were male, for the purpose of measuring the effectiveness of administering treatment in accordance with the present invention.

type I diabetic rats [2] = test: Liver function tests (bilirubin, aspartate aminotransferase, gamma glutamyltransferase, alkaline phosphatase) in type I diabetic rats treated with DMF; settings: versus untreated control rats, DMF 8 mg/kg daily ip
Method: as §1

type I diabetic rats [3] = test: Glycemia in STZ-induced type I diabetic rats treated with DMF; settings: DMF 8 mg/kg daily ip
type I diabetic rats [4] = test: Cholesterol and triglyceride levels in type I diabetic rats treated with DMF; settings: versus untreated rats and known levels in non-diabetic rats; DMF 8 mg/kg daily ip
Method: as §1

[5] = first rat, STZ-induced diabetes, average glycemia 440 mg % before treatment

Substance: dimethylformamide [DMF]
- levels of serum creatinine (FIG. 4) (type I diabetic rats [1]; versus untreated type I diabetic rats and known levels in non-diabetic rats): not only lower than the untreated, type I diabetic control group, but also lower than known levels of serum creatinine in non-diabetic female and male rats
- levels of urea (FIG. 4) (type I diabetic rats [1]; versus untreated type I diabetic rats): below that of the untreated type I diabetic rats
- liver function (FIG. 5) (type I diabetic rats [2]): either improved or not substantially different
- glycemia level versus untreated rats (FIG. 1) (type I diabetic rats [3]; female and male type I diabetic rats): remaining significantly below female and male rats not receiving treatment
- blood glucose level after seven days of treatment (type I diabetic rats [3]; [5]): below 100 mg %
- blood glucose level four days after treatment (type I diabetic rats [3]; [5]): 94 mg %
- blood glucose level after seven days of treatment (type I diabetic rats [3]; second rat, STZ-induced diabetes, average glycemia 526 mg % before treatment): below 120 mg %
- cholesterol levels (FIG. 3) (type I diabetic rats [4]): somewhat elevated
- triglycerides levels (FIG. 3) (type I diabetic rats [4]): significantly lowered
